The numbers were not newly measured in patent US20240285563A1, “USE OF (S)-3-AMINO-4-(DIFLUOROMETHYLENYL) CYCLOPENT-1-ENE-1-CARBOXYLIC ACID IN THE TREATMENT OF RHEUMATOID ARTHRITIS” (Ovid Therapeutics Inc., priority 2023, published 2024), which cites them from elsewhere.

Molecules are shown by their SMILES.

For series [1], the target named is T1, OAT (Homo sapiens, UniProt P04181).
T1 sequence (P04181 36-439 limits assumed): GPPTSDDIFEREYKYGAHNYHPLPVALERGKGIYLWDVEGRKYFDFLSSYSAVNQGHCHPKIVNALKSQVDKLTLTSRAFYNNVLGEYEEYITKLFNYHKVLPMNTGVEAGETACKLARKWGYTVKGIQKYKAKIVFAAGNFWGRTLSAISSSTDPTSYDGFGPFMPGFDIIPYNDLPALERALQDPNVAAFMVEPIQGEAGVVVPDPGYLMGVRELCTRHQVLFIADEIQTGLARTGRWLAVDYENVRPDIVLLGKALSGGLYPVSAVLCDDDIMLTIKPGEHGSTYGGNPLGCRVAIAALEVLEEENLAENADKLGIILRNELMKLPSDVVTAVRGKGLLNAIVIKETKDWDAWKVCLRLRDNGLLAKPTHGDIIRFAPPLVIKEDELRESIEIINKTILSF

The subject of series [2] is aspartate aminotransferase (Asp-AT).
The subject of series [3] is alanine aminotransferase (Ala-AT).

Take `N[C@H]1C[C@@H](C(=O)O)CC1=C(F)F` [CPP-115, (1S,3S)-3-amino+difluoromethylenyl-1-cyclopentanoic acid, reference compound]: in series [1], the inhibitory constant (Ki) was 116 µM. The “inactivation or inhibition of off-target enzyme” value in series [2] and in series [3] was “not to inactivate or inhibit” in each case.
Turning to `N[C@H]1C=C(C(=O)O)CC1=C(F)F` [OV329, (S)-3-amino-4-(difluoromethylenyl)cyclopent-1-ene-1-carboxylic acid], the inhibition constant (Ki) in series [1] is 3.3 µM. In addition, in series [1] (ratio of kinact/KI versus CPP-115), the “times more efficient an inactivator of OAT than CPP-115” value is on record as 9.0 times. The half-inhibitory concentration (IC50) in series [2] (very weak reversible inhibitor) and in series [3] (very weak reversible inhibitor) was > 4000 µM throughout.

The Ki is the equilibrium dissociation constant of an inhibitor or competing ligand from its target. One may read the IC50 as the concentration that inhibits the measured activity by half.
